Values joined by “and” are separate entries in the source; they are usually repeats but may differ in a detail not shown here. Equal values may be shown once.
Key:
[1] = test system: Treg cells; test: Treg expansion in activated human PBMC cultures (anti-CD3/anti-CD28, flow cytometry); format: cell-based; settings: anti-CD3 and anti-CD28, 96 hours, control 0%
Description: (§1) Human PBMCs and mouse splenocyte in vitro stimulation and treatment: Human peripheral blood mononuclear cells (PBMCs) and mouse splenocytes from donors were stimulated in vitro with anti-CD3 and anti-CD28 antibodies. The stimulated cells were simultaneously treated with compounds for 96 hours. The T cells were profiled for different cell surface and intracellular markers and proliferation by flow cytometry.
(§2) Flow cytometry analysis: Flow cytometry analysis was performed to quantify cell surface and intracellular markers expression and measure cell division index.
Viability staining: Cells were transferred into a 96 well conical bottom plate and washed with serum free PBS1×. Cells were incubated with Zombie NIR (Biolegend #423105)+FC block ([…]) for 20 minutes at 4° C. Cells were washed with staining medium (SM) (1×HBSS, 2.5 mM EDTA, 2% NBS
Cell surface marker staining: Cells were stained with antibodies against cell surface markers (CD3, CD4, CD8, CD25, Biolegend or ThermoFisher) for 20 minutes at 4° C. Cells were washed with SM before continuing with nuclear staining.
(§3) FOXP3 nuclear staining: Cells were fixed and permeabilized with Foxp3 Transcription Factor Staining Buffer Set (ThermoFisher #00-5523) for 20 minutes at room temperature. […] Results are finally analysed with the software FlowJo v.10.7.1.

[2] = test system: Treg cells; test: Treg expansion in activated mouse splenocytes in vitro; format: cell-based; settings: mouse splenocytes stimulated with anti-CD3 and anti-CD28 for 96 hours; FIG. 1
Description: Mouse splenocytes were harvested and single cell suspension stimulated in vitro with anti-CD3 and anti-CD28 antibodies for 96 hours. Treatment with 6-(4-tert-butylphenoxy)pyridin-3-amine, during the same interval of time, caused an expansion of immunosuppressive regulatory T cells (Tregs). Each bar represents the mean±SD (N=3 replicates).
as §1, §2
Viability staining: Cells were transferred into a 96 well conical bottom plate and washed with serum free PBS1×. Cells were incubated with Zombie NIR (Biolegend #423105)+FC block ([…]) for 20 minutes at 4° C. […]
as §3

[3] = test system: Treg cells (CD4+CD25highFOXP3+); test: In vivo dosing of C57BL6 mice, Treg cells in spleen; design: species or system mouse; settings: C57BL6 wild type mice, 60 mg/kg QD
Description: C57BL6 wild type mice were treated with 6-(4-tert-butylphenoxy)pyridin-3-amine at 60 mg/kg dose (QD). […] (*) p<0.05. Each bar represents the mean±SEM (N=3 replicates).
In vivo treatment of mice and pharmacodynamic response: Mice experiments were performed in compliance with authorization to perform animal experiments (VD3323). Briefly, 6-8 weeks old wild type C57Bl6 mice were subcutaneously or intraperitoneally dosed with vehicle or compounds for different durations. Mice were sacrificed, spleens were harvested 24 hours post-last dosing. Splenocytes were analyzed for cell surface and intracellular markers expression using flow cytometry. RNA expression analyses were performed using quantitative real time PCR.
as §2

[4] = test system: IL-17; test: ELISA of supernatant from activated human PBMC cultures: IL-17; format: cell-based; settings: control 0%
Description: as §1
(§4) ELISA assay: Supernatant from activated human PBMC cultures described above was separated from cells at the end of culture time. Key cytokines (IL-6, IFN-γ, IL-17) were quantified using sandwich ELISA reagents set (Diaclone) following manufacturer's instruction manual.

[5] = test system: IFNG; test: ELISA of supernatant from activated human PBMC cultures: IFNG; format: cell-based; settings: control 0%
Description: as §1, §4

[6] = test system: IFNG; test: Cytokine profiling in human patient plasma (MSD): IFNG; format: in vivo; settings: human patients, day 29 on treatment vs baseline pre-treatment
Description: (§5) Cytokine profiling in human plasma samples: Plasma samples from patients treated with 6-(4-tert-butylphenoxy)pyridin-3-amine were collected and stored at −80° C. until analysed. Cytokine and chemokine profiling was performed using MesoScale Discovery (MSD) platform and three assay panels: 1) Pro-inflammatory panel human, 2) Human IL-6 assay S-Plex, 3) Human IL-10 assay S-Plex.

[7] = test system: IL-10; test: Cytokine profiling in human patient plasma (MSD): IL-10; format: in vivo; settings: vs baseline
Description: as §5

[8] = test system: NSG mice injected with human PBMCs (GvHD); test: Humanized GvHD mouse model, ex vivo treated human PBMCs, no in vivo treatment; design: GvHD clinical score: Body weight loss: dose or concentration left out as unconfirmed; settings: day 21
Description: Humanized GvHD mouse model: 6-8 weeks old NSG mice were intraperitoneally injected with 10 million human peripheral blood mononuclear cells (PBMCs) as below:
Ex vivo treatment of PBMCs: 10 million human PBMCs from healthy donor #1 were ex-vivo treated with DMSO and […] of 6-(4-tert-butylphenoxy)pyridin-3-amine for 6 hours. Ex-vivo treated PBMCs were intraperitoneally injected into mice (10 million per mouse). 10 NSG mice were injected with DMSO pre-treated PBMCs and 10 NSG mice were injected with 6-(4-tert-butylphenoxy)pyridin-3-amine pre-treated PBMCS. Following PBMC injections mice were monitored for up to 42 days for symptoms of GvHD development as measured by standardized GvHD clinical score system. No in-vivo drug treatment was administered.
A cumulative GvHD clinical score was calculated by addition of scores for individual parameters (e.g. cumulative score=BWL+posture+activity+fur texture+skin integrity+paleness).

[9] = test system: irradiated Balb/c mice transplanted with TCD-BM + splenocytes from C57Bl6 mice (GvHD); test: Allogeneic bone marrow transplant GvHD model; format: in vivo, mouse
Description: (§6) Allogeneic Bone marrow transplant: Recipient Balb/c mice were irradiated twice 3.75Gy (T=0 and T=4 h) in an X-ray source irradiator before transplantation at T=8 h. Treatment with antibiotics (Nopil) and analgesic (Dafalgan) was supplemented to drinking water 4 days before injection. Irradiated recipient Balb/c mice were transplanted with 5 million T cell depleted bone marrow+1 million splenocytes. Allogeneic recipient animals were treated with vehicle or 6-(4-tert-butylphenoxy)pyridin-3-amine subcutaneously at 20 mg/kg for two days immediately after allo-BM transplant, given a 10 days treatment holiday to recover body weight loss due to whole body irradiation and then treatment continued at 20 mg/kg. […] Animals were monitored for symptoms of GvHD development (severe body weight loss, alopecia and diarrhea.
Graft vs host disease (GvHD) is an example of alloimmune disease that develops following allo-hematopoetic stem cell transplant (allo-HSCT) in humans. The activity of 6-(4-tert-butylphenoxy)pyridin-3-amine and a calcineurin inhibitor Cyclosprin A was investigated in a mouse model of GvHD following allo-bone marrow transplant. In this model, T cell depleted bone marrow cells (TCD-BM)+splenocytes from C57Bl6 mice were transplanted into irradiated Balb/c mice.

[10] = test system: regulatory T cells; test: Regulatory T cells in allo-BM + splenocyte transplanted mice; format: in vivo, mouse
Description: as §6

[11] = PBMCs pre-treated ex-vivo, DMSO group 0.71

SMILES: CC(C)(C)c1ccc(Oc2ccc(N)cn2)cc1 [6-(4-tert-butylphenoxy)pyridin-3-amine]
- expansion of Treg cells [1]: 112%
- expansion of Treg cells [2]: expansion of Treg cells
- Treg cells (CD4+CD25highFOXP3+) number ([3]; p<0.05, FIG. 2a): significantly increased
- Treg cells (CD4+CD25highFOXP3+) frequency ([3]; p<0.05, FIG. 2b): significantly increased
- Percentage downregulation of IL-17 [4]: 38%
- Percentage downregulation of IFNG [5]: 10%
- Percentage downregulation of IFNG in blood plasma [6]: 90% (day 29 on treatment)
- Percentage upregulation of IL-10 in blood plasma [7]: 60%
- GvHD clinical score: Body weight loss ([8]; PBMCs pre-treated ex-vivo (6 hours), DMSO group 1.0): 0
- GvHD clinical score: Skin integrity ([8]; PBMCs pre-treated ex-vivo, DMSO group 0.14): 0
- GvHD clinical score: Fur texture ([8]; PBMCs pre-treated ex-vivo, DMSO group 0.57): 0.14
- GvHD clinical score: Activity score [8, 11]: 0.14
- GvHD clinical score: Paleness [8, 11]: 0
- GvHD clinical score: Posture [8, 11]: 0.14
- Cumulative GvHD score ([8]; sum of individual scores, DMSO group 3.84): decreased cumulative GvHD score significantly and 0.42
- prevention of GvHD development (in words) ([9]; allo-bone marrow transplant, compared with vehicle): prevents development of GvHD
- treated animals that developed GvHD ([9]; allo-bone marrow transplant, 60% of vehicle treated animals died due to GvHD, FIG. 5): 20%
- animals remained GvHD free ([9]; allogeneic bone marrow+splenocyte transplantation, vehicle 40%, FIG. 5): 80%
- regulatory T cells [10]: expansion of regulatory T cells
